± gives the expanded uncertainty stated by the source.
Conditions: 101.33 kPa, Liquid; for mass density: Vibrating tube method; for speed of sound: Pulse-echo method

CCCC(=O)[O-].C[NH2+]CCO [N-methyl-2-hydroxyethylammonium butanoate]
Conditions | mass density [kg/m3] | speed of sound [m/s] | viscosity [mPa·s]
293.15 K | 1042.64 ± 2.2 | – | –
293.4 K | 1042.47 ± 2.2 | 1629.8 ± 2.1 | –
293.65 K | 1042.3 ± 2.2 | 1629 ± 2.1 | –
293.9 K | 1042.13 ± 2.2 | 1628.2 ± 2.1 | –
294.15 K | 1041.96 ± 2.2 | 1627.4 ± 2.1 | –
294.4 K | 1041.79 ± 2.2 | 1626.6 ± 2.1 | –
294.65 K | 1041.63 ± 2.2 | 1625.7 ± 2.1 | –
294.9 K | 1041.45 ± 2.2 | 1624.9 ± 2.1 | –
295.15 K | 1041.29 ± 2.2 | 1624.1 ± 2.1 | –
295.4 K | 1041.12 ± 2.2 | 1623.3 ± 2.1 | –
295.65 K | 1040.95 ± 2.2 | 1622.5 ± 2.1 | 352.2 ± 47
295.9 K | 1040.78 ± 2.2 | 1621.7 ± 2.1 | –
296.15 K | 1040.61 ± 2.2 | 1620.9 ± 2.1 | –
296.4 K | 1040.44 ± 2.2 | 1620.1 ± 2.1 | –
296.65 K | 1040.27 ± 2.2 | 1619.3 ± 2.1 | –
296.9 K | 1040.1 ± 2.2 | 1618.5 ± 2.1 | –
297.15 K | 1039.93 ± 2.2 | 1617.7 ± 2.1 | –
297.4 K | 1039.76 ± 2.2 | 1617 ± 2.1 | –
297.65 K | 1039.59 ± 2.2 | 1616.1 ± 2.1 | –
297.9 K | 1039.42 ± 2.2 | 1615.3 ± 2.1 | –
298.15 K | 1039.24 ± 2.2 | 1614.5 ± 2.1 | 298.95 ± 37
298.4 K | 1039.08 ± 2.2 | 1613.8 ± 2.1 | –
298.65 K | 1038.9 ± 2.2 | 1613 ± 2.1 | –
298.9 K | 1038.73 ± 2.2 | 1612.2 ± 2.1 | –
299.15 K | 1038.56 ± 2.2 | 1611.4 ± 2.1 | –
299.4 K | 1038.39 ± 2.2 | 1610.6 ± 2.1 | –
299.65 K | 1038.22 ± 2.2 | 1609.8 ± 2.1 | –
299.9 K | 1038.05 ± 2.2 | 1609 ± 2.1 | –
300.15 K | 1037.88 ± 2.2 | 1608.2 ± 2.1 | –
300.4 K | 1037.71 ± 2.2 | 1607.4 ± 2.1 | –
300.65 K | 1037.54 ± 2.2 | 1606.6 ± 2.1 | 256.7 ± 29
300.9 K | 1037.37 ± 2.2 | 1605.8 ± 2.1 | –
301.15 K | 1037.2 ± 2.2 | 1605 ± 2.1 | –
301.4 K | 1037.03 ± 2.2 | 1604.2 ± 2.1 | –
301.65 K | 1036.87 ± 2.2 | 1603.4 ± 2.1 | –
301.9 K | 1036.7 ± 2.2 | 1602.6 ± 2.1 | –
302.15 K | 1036.54 ± 2.2 | 1601.8 ± 2.1 | –
302.4 K | 1036.38 ± 2.2 | 1601 ± 2.1 | –
302.65 K | 1036.2 ± 2.2 | 1600.2 ± 2.1 | –
302.9 K | 1036.04 ± 2.2 | 1599.5 ± 2.1 | –
303.15 K | 1035.87 ± 2.2 | 1598.7 ± 2.1 | 219.16 ± 22
303.4 K | 1035.71 ± 2.2 | 1597.9 ± 2.1 | –
303.65 K | 1035.54 ± 2.2 | 1597.1 ± 2.1 | –
303.9 K | 1035.38 ± 2.2 | 1596.3 ± 2.1 | –
304.15 K | 1035.21 ± 2.2 | 1595.5 ± 2.1 | –
304.4 K | 1035.04 ± 2.2 | 1594.8 ± 2.1 | –
304.65 K | 1034.88 ± 2.2 | 1594 ± 2.1 | –
304.91 K | 1034.71 ± 2.2 | 1593.2 ± 2.1 | –
305.15 K | 1034.54 ± 2.2 | 1592.4 ± 2.1 | –
305.4 K | 1034.38 ± 2.2 | 1591.6 ± 2.1 | –
305.45 K | – | – | 186.26 ± 17
305.65 K | 1034.21 ± 2.2 | 1590.8 ± 2.1 | –
305.9 K | 1034.04 ± 2.2 | 1590.1 ± 2.1 | –
306.15 K | 1033.88 ± 2.2 | 1589.3 ± 2.1 | –
306.4 K | 1033.71 ± 2.2 | 1588.5 ± 2.1 | –
306.65 K | 1033.54 ± 2.2 | 1587.7 ± 2.1 | –
306.9 K | 1033.38 ± 2.2 | 1587 ± 2.1 | –
307.15 K | 1033.2 ± 2.2 | 1586.2 ± 2.1 | –
307.4 K | 1033.04 ± 2.2 | 1585.4 ± 2.1 | –
307.65 K | 1032.87 ± 2.2 | 1584.6 ± 2.1 | –
307.9 K | 1032.7 ± 2.2 | 1583.8 ± 2.1 | –

From the NIST ThermoML archive (doi:10.1021/je900550v)
